Test results taken from paper PMC8621172, “Manipulating Estrogenic/Anti-Estrogenic Activity of Triphenylethylenes towards Development of Novel Anti-Neoplastic SERMs” (International Journal of Molecular Sciences, 2021).

Key:
[1] = biological target: T1, human ERα (Homo sapiens, UniProt P03372); test: Yeast estrogen screen (YES) assay, antagonistic activity (β-galactosidase reporter); format: cell-based, yeast (Saccharomyces cerevisiae); settings: compounds at 1 µM in presence of 0.5 nM/1 nM E2 (E2 set as 1); triplicates
T1 construct: host or cells: Saccharomyces cerevisiae
T1 sequence (P03372 1-595): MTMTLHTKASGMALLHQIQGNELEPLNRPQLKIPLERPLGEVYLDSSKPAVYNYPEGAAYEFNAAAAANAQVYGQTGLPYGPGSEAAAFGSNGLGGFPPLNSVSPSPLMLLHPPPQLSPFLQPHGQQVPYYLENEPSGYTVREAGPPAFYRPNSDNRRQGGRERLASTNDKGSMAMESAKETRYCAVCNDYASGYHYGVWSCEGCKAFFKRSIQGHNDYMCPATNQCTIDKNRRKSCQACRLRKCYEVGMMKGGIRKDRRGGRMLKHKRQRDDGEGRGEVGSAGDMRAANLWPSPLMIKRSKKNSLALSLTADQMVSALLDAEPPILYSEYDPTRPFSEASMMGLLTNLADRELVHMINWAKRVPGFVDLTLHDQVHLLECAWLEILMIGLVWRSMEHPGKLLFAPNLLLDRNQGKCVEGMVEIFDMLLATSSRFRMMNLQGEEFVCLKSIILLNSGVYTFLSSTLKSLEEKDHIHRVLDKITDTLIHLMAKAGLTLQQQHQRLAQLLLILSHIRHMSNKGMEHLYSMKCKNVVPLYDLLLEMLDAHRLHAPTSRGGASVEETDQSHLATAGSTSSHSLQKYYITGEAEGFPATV
Description: All synthesized compounds were tested for their relative activity in β-galactosidase in a yeast estrogen screen (YES) assay. Compounds were tested for their relative estrogenic/anti-estrogenic activities in comparison to positive and negative controls, respectively. YES assay is a gene reporter assay where the DNA sequence of human ERα is integrated into the yeast genome completed with an expression plasmid carrying estrogen response elements (ERE) in the promoter controlling the expression of the reporter gene lacZ (encoding the enzyme β-galactosidase). In the presence of estrogenic compounds, β-galactosidase is synthesized and secreted into the medium, where it converts the chromogenic substrate chlorophenol red-β-D-galactopyranoside (CRPG) from a yellow to a red product, whose absorbance is measured. […] Therefore, we decided to test the novel compounds in an organ-specific in vitro model using the human Ishikawa endometrial adenocarcinoma cell line.
The yeast estrogen receptor assay was supplied by Dr. J.P. Sumpter (Brunel University, Uxbridge, UK) and was used to determine the relative transactivation activity of the human ERα as formerly described. Briefly, Saccharomyces cerevisiae stably transfected with a human ERα and an estrogen-responsive element fused to the reporter gene lacZ encoding for β-galactosidase were treated with the test substances for about 48 h. The β-galactosidase enzymatic activity was measured in a colorimetric assay using a microplate photometer by hydrolysis of the substrate chlorophenol red β-D-galactopyranoside (Roche Diagnostics, Mannheim, Germany), which leads to the formation of chlorophenol red. This can be measured as an increased absorption at 540 nm. All compounds were diluted in DMSO. […] All compounds were tested in technical quadruplicates and biological triplicates. Statistical analysis was performed by analysis of variance (ANOVA) and Tukey’s post-hoc test with the significance level of p < 0.05.

[2] = system: MCF-7 cells; test: NCI growth inhibition on MCF-7 (single dose and five-dose, SRB); format: cell-based, human; settings: Homo sapiens, MCF7; 10 µM
Description: Compounds were submitted to the Developmental Therapeutics Program (DTP) of the National Cancer Institute (NCI). The program uses a panel of 60 human tumor cell lines representing nine tissue types, including leukemia, non-small cell lung cancer (NSCLC), melanoma, colon cancer, ovarian cancer, CNS cancer, renal cancer, prostate cancer, and breast cancer, to screen for potential new anti-cancer agents. […] Primary screening of synthesized compounds was performed by testing a single high dose of 10 µM in the full NCI-60 panel. The percent growth of treated cells relative to the no-drug control and relative to the time zero number of cells was measured, and a mean graph was provided. The percentage inhibition was then calculated by subtracting the values obtained from 100.
All compounds were subjected to the NCI in vitro disease-oriented human cells screening panel assay. The human tumor cell lines of the cancer-screening panel are grown in RPMI 1640 medium containing 5% fetal bovine serum and 2 mM L-glutamine. For a typical screening experiment, cells are inoculated into 96-well microtiter plates in 100 μL at plating densities ranging from 5000 to 40,000 cells/well depending on the doubling time of individual cell lines. After cell inoculation, the microtiter plates are incubated at 37 °C, 5% CO2, 95% air, and 100% relative humidity for 24 h prior to the addition of experimental drugs. After 24 h, two plates of each cell line are fixed in situ with TCA to represent a measurement of the cell population for each cell line at the time of drug addition. Experimental drugs are solubilized in dimethyl sulfoxide at 400-fold the desired final maximum test concentration and stored frozen prior to use. At the time of drug addition, an aliquot of frozen concentrate is thawed and diluted to twice the desired final maximum test concentration with complete medium containing 50 μg/mL gentamicin. Additional four, 10-fold, or ½ log serial dilutions are made to provide a total of five drug concentrations plus control. Aliquots of 100 μL of these different drug dilutions are added to the appropriate microtiter wells already containing 100 μL of medium, resulting in the required final drug concentrations. Following drug addition, the plates are incubated for an additional 48 h at 37 °C, 5% CO2, 95% air, and 100% relative humidity. For adherent cells, the assay is terminated by the addition of cold TCA. Cells are fixed in situ by the gentle addition of 50 μL of cold 50% (w/v) TCA (final concentration, 10% TCA) and incubated for 60 min at 4 °C. The supernatant is discarded, and the plates are washed five times with tap water and air-dried. Sulforhodamine B (SRB) solution (100 μL) at 0.4% (w/v) in 1% acetic acid is added to each well, and plates are incubated for 10 min at room temperature. After staining, unbound dye is removed by washing five times with 1% acetic acid, and the plates are air-dried. Bound stain is subsequently solubilized with a 10 mM trizma base, and the absorbance is read on an automated plate reader at a wavelength of 515 nm. For suspension cells, the methodology is the same except that the assay is terminated by fixing settled cells at the bottom of the wells by gently adding 50 μL of 80% TCA (final concentration, 16% TCA). Compounds are screened at a dose of 10 µM, hits showing mean growth inhibition over 60 cell lines >50% are escalated for 5-dose screening assay. To construct a dose-response curve, about 60 cell lines of nine tumor subpanels were incubated with five concentrations (0.01–100 μM) for each compound. Three response parameters (GI50, TGI, and LC50) were calculated for each cell line.

Row | Compound | Anti-Estrogenic Activity (relative β-galactosidase activity) [1] | inhibition at 10 µM [2] [%]
1 | COc1cc(C(C)=C(c2ccc(Cl)cc2)c2ccc(OCCN3CCOCC3)cc2)ccc1F [Compound 25, E/Z-4-(2-{4-[1-(4-Chlorophenyl)-2-(4-fluoro-3-methoxyphenyl)-propenyl]-phenoxy}-ethyl)-morpholine] | 1.18 ± 0.03 | 2.75
2 | CC(=C(c1ccc(Cl)cc1)c1ccc(OCCN2CCOCC2)cc1)c1ccccc1 [Compound 8, E/Z-4-(2-{4-[1-(4-Chloro-phenyl)-2-phenyl-propenyl]-phenoxy}-ethyl)-morpholine] | 1.11 ± 0.26 | 30.9
3 | CC(=C(c1ccc(Cl)cc1)c1ccc(OCCN2CCCCC2)cc1)c1ccccc1 [Compound 7, E/Z-1-(2-{4-[1-(4-Chloro-phenyl)-2-phenyl-propenyl]-phenoxy}-ethyl)-piperidine] | 1.35 ± 0.16 | 56.4
4 | COc1ccc(C(C)=C(c2ccc(Cl)cc2)c2ccc(OCCCN(C)C)cc2)cc1 [Compound 10, E/Z-(3-{4-[1-(4-Chloro-phenyl)-2-(4-methoxy-phenyl)-propenyl]-phenoxy}-propyl)-dimethyl-amine] | 3.92 ± 0.58 | 63.1
5 | COc1cc(C(C)=C(c2ccc(Cl)cc2)c2ccc(OCCN(C)C)cc2)ccc1F [Compound 27, E/Z-(2-{4-[1-(4-Chlorophenyl)-2-(4-fluoro-3-methoxyphenyl)-propenyl]-phenoxy}-ethyl)-dimethyl-amine] | 0.86 ± 0.04 | 68.3
6 | CC(=C(c1ccc(Cl)cc1)c1ccc(OCCCN(C)C)cc1)c1ccccc1 [Compound 5, E/Z-(3-{4-[1-(4-Chloro-phenyl)-2-phenyl-propenyl]-phenoxy}-propyl)-dimethyl-amine] | 1.34 ± 0.15 | 55
7 | COc1cc(C(C)=C(c2ccc(Cl)cc2)c2ccc(OCCN3CCCCCC3)cc2)ccc1F [Compound 26, E/Z-1-(2-{4-[1-(4-Chlorophenyl)-2-(4-fluoro-3-methoxyphenyl)-propenyl]-phenoxy}-ethyl)-azepane] | 1.05 ± 0.12 | 36.5
